Experimental data from US20240391882A1 (Mirati Therapeutics, Inc., priority 2023, published 2024).

How the values were obtained:
[1] = tested on: pAKT in T47D (PI3Kα H1047R mutant) cells; assay: Inhibition of pAKT (alphaLISA Surefire Ultra AKT 1/2/3 pS473) in T47D cells; type: cell-based; details: Homo sapiens; T47D (PI3Kα H1047R mutant) cells, 24 hr compound incubation, alphaLISA pS473; read-out: T47D (H1047R) pAKT 24 hr (IC50)
Experimental: The ability of a compound of Formula (I) to inhibit the formation of pAKT was measured using alphaLISA Surefire Ultra AKT 1/2/3 (pS473) Assay Kit (#ALSU-PAKT-B50K) was obtained from Perkin Elmer (Waltham, MA).
To prepare assay plates for pAKT alphaLISA assays, cells were trypsinized, resuspended in fresh media, and viable cells were counted utilizing trypan blue exclusion. Prior to seeding, cells were washed with PBS and resuspended in HBSS (Gibco, #14025092). T47D (12,000/w), SKBR3 (12,000/w), or MKN1 (24,000/w) cells were seeded at 12 μl per well in a solid white flat bottom 384 cell culture plate (Perkin Elmer #6007680).
Immediately after seeding, cells were dosed using an Echo Liquid Handler (Beckman Coulter) with compounds at a 10.4 μm starting concentration and serially diluted (1:4) for a total of 10 concentrations. 14 vehicle (DMSO) and 14 positive control (Alpelisib @3.125 μm) wells were included on each assay plate. Cells were incubated with the compounds (solubilized in DMSO) for approximately 24 hours at 37° C. After 24 hours of treatment, cells were lysed with 3 μl of the 5× lysis buffer (provided and incubated at room temperature for 15 min on a microtiter plate shaker). Once cells were sufficiently lysed, 7.5 μl of the acceptor bead mix (made using the manufacturers recommended dilutions) was added to each well and left on the microtiter plate shaker for 1 min prior to incubating plates at room temperature for 1 hour, in the absence of light. After 1 hour of incubation with the acceptor bead mix, 7.5 μl of the donor bead mix (made using the manufacturers recommended dilutions) was added to each well and left on the microtiter plate shaker for 1 min prior to incubating plates at room temperature overnight in the absence of light. Plates were then imaged the following day using a CLARIOstar microplate reader (BMG Labtech, Germany).
Percent of control values were calculated by subtracting the average signal from the positive control (alpelisib) treated wells from all treated wells (including DMSO control wells) and then divided by the average signal from the vehicle DMSO treated control wells. Percent of vehicle control values were plotted as log(inhibitor) vs. response—Variable slope (four parameters) for curve fitting and IC50 values were determined using XLfit.

[2] = tested on: T47D (PI3Kα H1047R mutant) cells; assay: Cell viability (CellTiter-Glo 2.0) in T47D cells; type: cell-based; details: Homo sapiens, T47D, 72 h, approximately 72 hours
Experimental: This Example illustrates that representative compounds of the invention decrease the viability of cells.
The ability of a compound of Formula (I) to decrease the viability of cells was measured using CellTiter-Glo 2.0 (CTG) Luminescent Cell Viability Assay (#G9241) obtained from Promega (Madison, WI).
To prepare assay plates for viability assays, cells were trypsinized, resuspended in fresh media, and viable cells were counted utilizing trypan blue exclusion. T47D, SKBR3, or MKN1 cells were seeded at 1000 cells in 30 μl per well in a solid white flat bottom 384 cell culture plate (Perkin Elmer #6007680) and incubated at 37° C. overnight.
Assay day 1, cells were dosed using an Echo Liquid Handler (Beckman Coulter) with compounds at a 10 μm starting concentration and serially diluted (1:4) for a total of 10 concentrations. Cells were incubated for approximately 72 hours with the compounds (solubilized in DMSO) at 37° C. After 72 hours of treatment, cell plates were equilibrated to room temperature before adding 15 μl of CTG to each well, plates were then covered in aluminum foil to protect from light, incubated at room temperature for 30 minutes on a microtiter plate shaker, and luminescence readings were collected using a CLARIOstar microplate reader (BMG Labtech, Germany). Percent of vehicle control values were plotted as log(inhibitor) vs. response—Variable slope (four parameters) for curve fitting and IC50 values were determined using XLfit.

| IC50 [1] [nM] | IC50 [2] [nM] | Structure (SMILES) |
| --- | --- | --- |
| 2.1 | – | Cc1cc([C@@H](C)Nc2ccc(Cl)nc2C(=O)O)c2nc(N3CCC(n4cc(C(F)(F)F)cn4)CC3)c(C#N)nc2c1 [Example 139, (R)-6-chloro-3-((1-(2-cyano-7-methyl-3-(4-(4-(trifluoromethyl)-1H-pyrazol-1-yl)piperidin-1-yl)quinoxalin-5-yl)ethyl)amino)picolinic acid] |
| 1.7 | 34.5 | Cc1cc([C@@H](C)Nc2ccc(Cl)nc2C(=O)O)c2nc(N3CC[C@H](F)C3)c(C#N)nc2c1 [Example 176, 6-chloro-3-(((R)-1-(2-cyano-3-((S)-3-fluoropyrrolidin-1-yl)-7-methylquinoxalin-5-yl)ethyl)amino)picolinic acid] |
| 4.6 | 47.6 | Cc1cc([C@@H](C)Nc2ccc(Cl)nc2C(=O)O)c2nc(N3CCC(=O)CC3)c(C#N)nc2c1 [Example 161, (R)-6-chloro-3-((1-(2-cyano-7-methyl-3-(4-oxopiperidin-1-yl)quinoxalin-5-yl)ethyl)amino)picolinic acid] |
| 0.8 | – | Cc1cc([C@@H](C)Nc2ccc(Cl)nc2C(=O)O)c2nc(N3CCC(n4cc(C)cn4)CC3)c(C#N)nc2c1 [Example 138, (R)-6-chloro-3-((1-(2-cyano-7-methyl-3-(4-(4-methyl-1H-pyrazol-1-yl)piperidin-1-yl)quinoxalin-5-yl)ethyl)amino)picolinic acid] |
| 4.6 | 150 | Cc1cc([C@@H](C)Nc2ccc(Cl)nc2C(=O)O)c2nc(N3C[C@@H]4[C@@H](CO)[C@@H]4C3)c(C#N)nc2c1 [Example 167, 6-chloro-3-(((R)-1-(2-cyano-3-((1R,5S,6R)-6-(hydroxymethyl)-3-azabicyclo[3.1.0]hexan-3-yl)-7-methylquinoxalin-5-yl)ethyl)amino)picolinic acid] |
| 5.6 | 97 | COC[C@]1(F)CCN(c2nc3c([C@@H](C)Nc4ccc(Cl)nc4C(=O)O)cc(C)cc3nc2C#N)C1 (single isomer, unassigned) [Example 165] |
| 4.6 | 85.8 | CC(=O)N1CCN(c2nc3c([C@@H](C)Nc4ccc(Cl)nc4C(=O)O)cc(C)cc3nc2C#N)CC1 [Example 160, (R)-3-((1-(3-(4-acetylpiperazin-1-yl)-2-cyano-7-methylquinoxalin-5-yl)ethyl)amino)-6-chloropicolinic acid] |
| 1.6 | 35 | Cc1cc([C@@H](C)Nc2ccc(Cl)nc2C(=O)O)c2nc(N3CCc4ccncc4C3)c(C#N)nc2c1 [Example 162, (R)-6-chloro-3-((1-(2-cyano-3-(3,4-dihydro-2,7-naphthyridin-2(1H)-yl)-7-methylquinoxalin-5-yl)ethyl)amino)picolinic acid] |
| 3.9 | 77.3 | Cc1cc([C@@H](C)Nc2ccc(Cl)nc2C(=O)O)c2nc(N3CCN(c4ccc(C(F)(F)F)cn4)CC3)c(C#N)nc2c1 [Example 179, (R)-6-chloro-3-((1-(2-cyano-7-methyl-3-(4-(5-(trifluoromethyl)pyridin-2-yl)piperazin-1-yl)quinoxalin-5-yl)ethyl)amino)picolinic acid] |
| 0.3 | 26.8 | Cc1cc([C@@H](C)Nc2ccc(Cl)nc2C(=O)O)c2nc(N3C[C@@H]4C[C@H]3CO4)c(C#N)nc2c1 [Example 173, 3-(((R)-1-(3-((1S,4S)-2-oxa-5-azabicyclo[2.2.1]heptan-5-yl)-2-cyano-7-methylquinoxalin-5-yl)ethyl)amino)-6-chloropicolinic acid] |

The next lines start with the compound.

| Structure (SMILES) | IC50 [1] [nM] | IC50 [2] [nM] |
| --- | --- | --- |
| Cc1cc([C@@H](C)Nc2ccc(Cl)nc2C(=O)O)c2nc(N3CC(C)(C)C(F)(F)C3)c(C#N)nc2c1 [Example 123, (R)-6-chloro-3-((1-(2-cyano-3-(3,3-difluoro-4,4-dimethylpyrrolidin-1-yl)-7-methylquinoxalin-5-yl)ethyl)amino)picolinic acid] | 66.8 | 273 |
| Cc1cc([C@@H](C)Nc2ccccc2C(=O)O)c2nc(N3CC(F)(F)C3)c(C#N)nc2c1 [Example 127, (R)-2-((1-(2-cyano-3-(3,3-difluoroazetidin-1-yl)-7-methylquinoxalin-5-yl)ethyl)amino)benzoic acid] | 8.4 | 296 |
| Cc1cc([C@@H](C)Nc2ccc(Cl)nc2C(=O)O)c2nc(NCCC(=O)N(C)C)c(C#N)nc2c1 [Example 125, (R)-6-chloro-3-((1-(2-cyano-3-((3-(dimethylamino)-3-oxopropyl)amino)-7-methylquinoxalin-5-yl)ethyl)amino)picolinic acid] | 2.7 | 163 |
| Cc1cc([C@@H](C)Nc2ccc(Cl)nc2C(=O)O)c2nc(N3CC(F)(F)C4(CC4)C3)c(C#N)nc2c1 [Example 116, (R)-6-chloro-3-((1-(2-cyano-3-(7,7-difluoro-5-azaspiro[2.4]heptan-5-yl)-7-methylquinoxalin-5-yl)ethyl)amino)picolinic acid] | 15 | 202 |
| COCCNc1nc2c([C@@H](C)Nc3ccc(Cl)nc3C(=O)O)cc(C)cc2nc1C#N [Example 132, (R)-6-chloro-3-((1-(2-cyano-3-((2-methoxyethyl)amino)-7-methylquinoxalin-5-yl)ethyl)amino)picolinic acid] | 0.9 | – |
| Cc1cc([C@@H](C)Nc2ccc(Cl)nc2C(=O)O)c2nc(N3CCC(n4cccn4)CC3)c(C#N)nc2c1 [Example 136, (R)-3-((1-(3-(4-(1H-pyrazol-1-yl)piperidin-1-yl)-2-cyano-7-methylquinoxalin-5-yl)ethyl)amino)-6-chloropicolinic acid] | 0.7 | – |
| Cc1cc([C@@H](C)Nc2ccccc2C(=O)O)c2nc(N3CC4(CCO4)C3)c(C#N)nc2c1 [Example 134, (R)-2-((1-(2-cyano-7-methyl-3-(1-oxa-6-azaspiro[3.3]heptan-6-yl)quinoxalin-5-yl)ethyl)amino)benzoic acid] | 10.9 | – |
| Cc1cc([C@@H](C)Nc2ccc(Cl)nc2C(=O)O)c2nc(N3CCc4cc(C#N)ccc4C3)c(C#N)nc2c1 [Example 85, (R)-6-chloro-3-((1-(2-cyano-3-(6-cyano-3,4-dihydroisoquinolin-2(1H)-yl)-7-methylquinoxalin-5-yl)ethyl)amino)picolinic acid] | 2 | – |
| Cc1cc([C@@H](C)Nc2ccc(Cl)nc2C(=O)O)c2nc(N3CCN(c4ccc(C(F)(F)F)nc4)CC3)c(C#N)nc2c1 [Example 133, (R)-6-chloro-3-((1-(2-cyano-7-methyl-3-(4-(6-(trifluoromethyl)pyridin-3-yl)piperazin-1-yl)quinoxalin-5-yl)ethyl)amino)picolinic acid] | 0.8 | – |
| CC(=O)N(C)C1CCN(c2nc3c([C@@H](C)Nc4ccc(Cl)nc4C(=O)O)cc(C)cc3nc2C#N)CC1 [Example 137, (R)-6-chloro-3-((1-(2-cyano-7-methyl-3-(4-(N-methylacetamido)piperidin-1-yl)quinoxalin-5-yl)ethyl)amino)picolinic acid] | 1.3 | – |
| Cc1cc([C@@H](C)Nc2ccc(Cl)nc2C(=O)O)c2nc(N3CC(C(F)(F)F)C3)c(C#N)nc2c1 [Example 131, (R)-6-chloro-3-((1-(2-cyano-7-methyl-3-(3-(trifluoromethyl)azetidin-1-yl)quinoxalin-5-yl)ethyl)amino)picolinic acid] | 2.2 | – |
| Cc1cc([C@@H](C)Nc2ccc(Cl)nc2C(=O)O)c2nc(NCC3COC3)c(C#N)nc2c1 [Example 135, (R)-6-chloro-3-((1-(2-cyano-7-methyl-3-((oxetan-3-ylmethyl)amino)quinoxalin-5-yl)ethyl)amino)picolinic acid] | 19.2 | – |
